Values after ≈ are worked out from the molar mass of the structure shown. Like-named read-outs stand apart in the source and are kept apart here.
Assays:
Pseudomonas aeruginosa = experiment: MIC/MBC against CF isolates (CLSI, alamar blue)
Burkholderia cenocepacia = experiment: MIC/MBC against CF isolates (CLSI, alamar blue); settings: Burkholderia cenocepacia
[1] = test system: Stenotrophomonas maltophilia; experiment: MIC/MBC against CF isolates (CLSI, alamar blue); settings: Stenotrophomonas maltophilia
Acinetobacter baumannii = experiment: MIC/MBC against clinical isolates (CLSI, alamar blue); settings: Acinetobacter baumannii
[2] = Pseudomonas aeruginosa, CF Pseudomonas isolate NB1
[3] = Pseudomonas aeruginosa, CF Pseudomonas isolate NB2
[4] = Pseudomonas aeruginosa, CF Pseudomonas isolate NB3
[5] = Pseudomonas aeruginosa, CF Pseudomonas isolate NB4
[6] = Pseudomonas aeruginosa, CF Pseudomonas isolate NB5
[7] = Pseudomonas aeruginosa, CF Pseudomonas isolate NB6
[8] = Pseudomonas aeruginosa, CF Pseudomonas isolate NB7
[9] = Pseudomonas aeruginosa, CF Pseudomonas isolate NB8
[10] = Pseudomonas aeruginosa, CF Pseudomonas isolate NB9
[11] = Pseudomonas aeruginosa, CF Pseudomonas isolate NB10
[12] = Pseudomonas aeruginosa, CF Pseudomonas isolate NB11
[13] = Pseudomonas aeruginosa, CF Pseudomonas isolate NB12
[14] = Pseudomonas aeruginosa, CF Pseudomonas isolate NB13
[15] = Pseudomonas aeruginosa, CF Pseudomonas isolate NB14
[16] = Pseudomonas aeruginosa, CF Pseudomonas isolate NB15
[17] = Pseudomonas aeruginosa, CF Pseudomonas isolate NB16
[18] = Pseudomonas aeruginosa, CF Pseudomonas isolate NB17
[19] = Pseudomonas aeruginosa, CF Pseudomonas isolate NB18
[20] = Pseudomonas aeruginosa, CF Pseudomonas isolate NB19
[21] = Pseudomonas aeruginosa, CF Pseudomonas isolate NB20
[22] = CF Stenotrophomonas isolate NB41
[23] = CF Stenotrophomonas isolate NB42
[24] = CF Stenotrophomonas isolate NB43
[25] = CF Stenotrophomonas isolate NB44
[26] = CF Stenotrophomonas isolate NB45
[27] = CF Stenotrophomonas isolate Steno 1
[28] = CF Stenotrophomonas isolate Steno 2
[29] = CF Stenotrophomonas isolate Steno 3
[30] = CF Stenotrophomonas isolate Steno 4
[31] = CF Stenotrophomonas isolate Steno 6
[32] = CF Stenotrophomonas isolate Steno 8

With `CO[C@@]1(NC(=O)Cc2cccs2)C(=O)N2C(C(=O)O)=C(COC(N)=O)CS[C@@H]21` [Cefoxitin] the “MBC 90” value (Pseudomonas aeruginosa; 20 CF Pseudomonas isolates) was >256 µg/mL, the MIC50 (Pseudomonas aeruginosa; Pseudomonas aeruginosa) was > 256 µg/mL and the MIC90 (Pseudomonas aeruginosa; Pseudomonas aeruginosa) was > 256 µg/mL. The MBC (Pseudomonas aeruginosa; [2]) was > 256 µg/mL, the MIC (Pseudomonas aeruginosa; [2]) was > 256 µg/mL and the MBC (Pseudomonas aeruginosa; [3]) was > 256 µg/mL. For the same compound, the MIC (Pseudomonas aeruginosa; [3]) was > 256 µg/mL, the MBC (Pseudomonas aeruginosa; [4]) was > 256 µg/mL and the MIC (Pseudomonas aeruginosa; [4]) was > 256 µg/mL. The MBC (Pseudomonas aeruginosa; [5]) was > 256 µg/mL, the MIC (Pseudomonas aeruginosa; [5]) was > 256 µg/mL and the MBC (Pseudomonas aeruginosa; [6]) was > 256 µg/mL. For the same compound, the MIC (Pseudomonas aeruginosa; [6]) was > 256 µg/mL, the MBC (Pseudomonas aeruginosa; [7]) was > 256 µg/mL and the MIC (Pseudomonas aeruginosa; [7]) was > 256 µg/mL. The MBC (Pseudomonas aeruginosa; [8]) was > 256 µg/mL, the MIC (Pseudomonas aeruginosa; [8]) was > 256 µg/mL and the MBC (Pseudomonas aeruginosa; [9]) was > 256 µg/mL. For the same compound, the MIC (Pseudomonas aeruginosa; [9]) was > 256 µg/mL, the MBC (Pseudomonas aeruginosa; [10]) was > 256 µg/mL and the MIC (Pseudomonas aeruginosa; [10]) was > 256 µg/mL. The MBC (Pseudomonas aeruginosa; [11]) was > 256 µg/mL, the MIC (Pseudomonas aeruginosa; [11]) was > 256 µg/mL and the MBC (Pseudomonas aeruginosa; [12]) was > 256 µg/mL. The MIC (Pseudomonas aeruginosa; [12]) was > 256 µg/mL, the MBC (Pseudomonas aeruginosa; [13]) was > 256 µg/mL and the MIC (Pseudomonas aeruginosa; [13]) was > 256 µg/mL. The MBC (Pseudomonas aeruginosa; [14]) was > 256 µg/mL, the MIC (Pseudomonas aeruginosa; [14]) was > 256 µg/mL and the MBC (Pseudomonas aeruginosa; [15]) was > 256 µg/mL. For the same compound, the MIC (Pseudomonas aeruginosa; [15]) was > 256 µg/mL, the MBC (Pseudomonas aeruginosa; [16]) was > 256 µg/mL and the MIC (Pseudomonas aeruginosa; [16]) was > 256 µg/mL. The MBC (Pseudomonas aeruginosa; [17]) was > 256 µg/mL, the MIC (Pseudomonas aeruginosa; [17]) was > 256 µg/mL and the MBC (Pseudomonas aeruginosa; [18]) was > 256 µg/mL. For the same compound, the MIC (Pseudomonas aeruginosa; [18]) was > 256 µg/mL, the MBC (Pseudomonas aeruginosa; [19]) was > 256 µg/mL and the MIC (Pseudomonas aeruginosa; [19]) was > 256 µg/mL. For the same compound, the MBC (Pseudomonas aeruginosa; [20]) was > 256 µg/mL, the MIC (Pseudomonas aeruginosa; [20]) was > 256 µg/mL and the MBC (Pseudomonas aeruginosa; [21]) was > 256 µg/mL. For the same compound, the MIC (Pseudomonas aeruginosa; [21]) was > 256 µg/mL, the MBC (Pseudomonas aeruginosa; Pseudomonas aeruginosa, read-out: MBC 50, 20 CF Pseudomonas isolates) was > 256 µg/mL and the MBC (Pseudomonas aeruginosa; Pseudomonas aeruginosa, read-out: MBC 50, second MBC 50 line of the summary, Stenotrophomonas, values equal those of the CF Pseudomonas isolates) was > 256 µg/mL. For the same compound, the MIC90 (Burkholderia cenocepacia) was 256 µg/mL (≈ 599 µM), the MIC50 (Burkholderia cenocepacia; 10 CF Burkholderia isolates) was 128 µg/mL (≈ 299 µM) and the MBC (Burkholderia cenocepacia; CF Burkholderia isolate NB21) was > 256 µg/mL. It also gave an MIC (Burkholderia cenocepacia; CF Burkholderia isolate NB21) of 256 µg/mL (≈ 599 µM), an MBC (Burkholderia cenocepacia; CF Burkholderia isolate NB22) of 256 µg/mL (≈ 599 µM) and an MIC (Burkholderia cenocepacia; CF Burkholderia isolate NB22) of 128 µg/mL (≈ 299 µM). The MBC (Burkholderia cenocepacia; CF Burkholderia isolate NB23) was > 256 µg/mL, the MIC (Burkholderia cenocepacia; CF Burkholderia isolate NB23) was > 256 µg/mL and the MBC (Burkholderia cenocepacia; CF Burkholderia isolate NB24) was > 256 µg/mL. It also gave an MIC (Burkholderia cenocepacia; CF Burkholderia isolate NB24) of 128 µg/mL (≈ 299 µM), an MBC (Burkholderia cenocepacia; CF Burkholderia isolate NB25) of 256 µg/mL (≈ 599 µM) and an MIC (Burkholderia cenocepacia; CF Burkholderia isolate NB25) of 128 µg/mL (≈ 299 µM). The MBC (Burkholderia cenocepacia; CF Burkholderia isolate NB26) was 256 µg/mL (≈ 599 µM), the MIC (Burkholderia cenocepacia; CF Burkholderia isolate NB26) was 128 µg/mL (≈ 299 µM) and the MBC (Burkholderia cenocepacia; CF Burkholderia isolate NB27) was > 256 µg/mL. It also gave an MIC (Burkholderia cenocepacia; CF Burkholderia isolate NB27) of 128 µg/mL (≈ 299 µM), an MBC (Burkholderia cenocepacia; CF Burkholderia isolate NB28b) of 16 µg/mL (≈ 37.4 µM) and an MIC (Burkholderia cenocepacia; CF Burkholderia isolate NB28b) of 16 µg/mL (≈ 37.4 µM). For the same compound, the MBC (Burkholderia cenocepacia; CF Burkholderia isolate NB29) was > 256 µg/mL, the MIC (Burkholderia cenocepacia; CF Burkholderia isolate NB29) was 256 µg/mL (≈ 599 µM) and the MBC (Burkholderia cenocepacia; CF Burkholderia isolate NB30) was 128 µg/mL (≈ 299 µM). For the same compound, the MIC (Burkholderia cenocepacia; CF Burkholderia isolate NB30) was 128 µg/mL (≈ 299 µM), the MIC50 [1] was > 256 µg/mL and the MIC90 [1] was > 256 µg/mL. The MBC [1, 22] was > 256 µg/mL, the MIC [1, 22] was > 256 µg/mL and the MBC [1, 23] was > 256 µg/mL. For the same compound, the MIC [1, 23] was > 256 µg/mL, the MBC [1, 24] was > 256 µg/mL and the MIC [1, 24] was > 256 µg/mL. For the same compound, the MBC [1, 25] was > 256 µg/mL, the MIC [1, 25] was 256 µg/mL (≈ 599 µM) and the MBC [1, 26] was > 256 µg/mL. The MIC [1, 26] was > 256 µg/mL, the MBC [1, 27] was > 256 µg/mL and the MIC [1, 27] was > 256 µg/mL. The MBC [1, 28] was > 256 µg/mL, the MIC [1, 28] was > 256 µg/mL and the MBC [1, 29] was > 256 µg/mL. The MIC [1, 29] was 256 µg/mL (≈ 599 µM), the MBC [1, 30] was 256 µg/mL (≈ 599 µM) and the MIC [1, 30] was 256 µg/mL (≈ 599 µM). The MBC [1, 31] was 256 µg/mL (≈ 599 µM), the MIC [1, 31] was 128 µg/mL (≈ 299 µM) and the MBC [1, 32] was > 256 µg/mL. For the same compound, the MIC [1, 32] was > 256 µg/mL, the MBC ([1]; read-out: MBC 50, 11 CF Stenotrophomonas isolates) was > 256 µg/mL and the MIC50 (Acinetobacter baumannii) was > 256 µg/mL. The MIC90 (Acinetobacter baumannii) was > 256 µg/mL, the MBC (Acinetobacter baumannii; Acinetobacter isolate NB31) was > 256 µg/mL and the MIC (Acinetobacter baumannii; Acinetobacter isolate NB31) was > 256 µg/mL. The MBC (Acinetobacter baumannii; Acinetobacter isolate NB32) was 256 µg/mL (≈ 599 µM), the MIC (Acinetobacter baumannii; Acinetobacter isolate NB32) was 256 µg/mL (≈ 599 µM) and the MBC (Acinetobacter baumannii; Acinetobacter isolate NB33) was > 256 µg/mL. The MIC (Acinetobacter baumannii; Acinetobacter isolate NB33) was > 256 µg/mL, the MBC (Acinetobacter baumannii; Acinetobacter isolate NB34) was > 256 µg/mL and the MIC (Acinetobacter baumannii; Acinetobacter isolate NB34) was > 256 µg/mL. The MBC (Acinetobacter baumannii; Acinetobacter isolate NB35) was > 256 µg/mL, the MIC (Acinetobacter baumannii; Acinetobacter isolate NB35) was > 256 µg/mL and the MBC (Acinetobacter baumannii; Acinetobacter isolate NB36) was 128 µg/mL (≈ 299 µM). For the same compound, the MIC (Acinetobacter baumannii; Acinetobacter isolate NB36) was 128 µg/mL (≈ 299 µM), the MBC (Acinetobacter baumannii; Acinetobacter isolate NB37) was > 256 µg/mL and the MIC (Acinetobacter baumannii; Acinetobacter isolate NB37) was > 256 µg/mL. The MBC (Acinetobacter baumannii; Acinetobacter isolate NB38) was > 256 µg/mL, the MIC (Acinetobacter baumannii; Acinetobacter isolate NB38) was > 256 µg/mL and the MBC (Acinetobacter baumannii; Acinetobacter isolate NB39) was > 256 µg/mL. The MIC (Acinetobacter baumannii; Acinetobacter isolate NB39) was > 256 µg/mL, the MBC (Acinetobacter baumannii; Acinetobacter isolate NB40) was > 256 µg/mL and the MIC (Acinetobacter baumannii; Acinetobacter isolate NB40) was > 256 µg/mL. For the same compound, the MBC (Acinetobacter baumannii; read-out: MBC 50, 10 Acinetobacter isolates) was > 256 µg/mL.
Compound `CCN1CCN(C(=O)N[C@@H](C(=O)N[C@@H]2C(=O)N3[C@@H]2SC(C)(C)[C@@H]3C(=O)O)c2ccccc2)C(=O)C1=O` [Pipercillin] has an MBC (Pseudomonas aeruginosa; CF Pseudomonas isolate NB1) of 1024 µg/mL (≈ 1980 µM), an MIC (Pseudomonas aeruginosa; CF Pseudomonas isolate NB1) of 1024 µg/mL (≈ 1980 µM) and an MBC (Pseudomonas aeruginosa; CF Pseudomonas isolate NB2) of 128 µg/mL (≈ 247 µM). The MIC (Pseudomonas aeruginosa; CF Pseudomonas isolate NB2) was 128 µg/mL (≈ 247 µM), the MBC (Pseudomonas aeruginosa; CF Pseudomonas isolate NB3) was >1024 µg/mL and the MIC (Pseudomonas aeruginosa; CF Pseudomonas isolate NB3) was >1024 µg/mL. For the same compound, the MBC (Pseudomonas aeruginosa; CF Pseudomonas isolate NB4) was 1024 µg/mL (≈ 1980 µM), the MIC (Pseudomonas aeruginosa; CF Pseudomonas isolate NB4) was 512 µg/mL (≈ 989 µM) and the MBC (Pseudomonas aeruginosa; CF Pseudomonas isolate NB5) was >1024 µg/mL. For the same compound, the MIC (Pseudomonas aeruginosa; CF Pseudomonas isolate NB5) was >1024 µg/mL, the MBC (Pseudomonas aeruginosa; CF Pseudomonas isolate NB6) was >1024 µg/mL and the MIC (Pseudomonas aeruginosa; CF Pseudomonas isolate NB6) was 1024 µg/mL (≈ 1980 µM). For the same compound, the MBC (Pseudomonas aeruginosa; CF Pseudomonas isolate NB7) was 1024 µg/mL (≈ 1980 µM), the MIC (Pseudomonas aeruginosa; CF Pseudomonas isolate NB7) was 512 µg/mL (≈ 989 µM) and the MBC (Pseudomonas aeruginosa; CF Pseudomonas isolate NB8) was >1024 µg/mL. The MIC (Pseudomonas aeruginosa; CF Pseudomonas isolate NB8) was >1024 µg/mL, the MBC (Pseudomonas aeruginosa; CF Pseudomonas isolate NB9) was >1024 µg/mL and the MIC (Pseudomonas aeruginosa; CF Pseudomonas isolate NB9) was 512 µg/mL (≈ 989 µM). For the same compound, the MBC (Pseudomonas aeruginosa; CF Pseudomonas isolate NB10) was 512 µg/mL (≈ 989 µM) and the MIC (Pseudomonas aeruginosa; CF Pseudomonas isolate NB10) was 256 µg/mL (≈ 495 µM).
